The values that follow come from patent publication US20090289071A1, “Flow Through Components with an Antimicrobial Lining” (THE BOC GROUP, INC., priority 2004, published 2009).

Some results are limits rather than exact numbers.

For data set [1] the following is noted: estimated; called medium value.
Assay in data set [2]: not given
The source holds these as a separate data set.

For the compound `CCCCNC(=O)[N-]S(=O)(=O)c1ccc(C)cc1.[Ag+]` [AgTol, silver tolbutamide], the light stability entry (as a solid) is recorded as “light stable”. For the same compound, the photostability entry (present in a coating) is listed as “not photostable”. Besides, in data set [1], the “dissociation constant (pK)” value is greater than 3.3. Moreover, the “solubility compared with silver sulfadiazine” value in data set [2] (relative to silver sulfadiazine) was “considerably greater than that of silver sulfadiazine”. Also, the solubility entry in data set [2] (variety of organic solvents, including solvents containing polymers) is “soluble in a variety of organic solvents”.
